# Measured values: patent publication US8445510B2, “Fused bicyclic kinase inhibitors” (OSI Pharmaceuticals, LLC, priority 2011, dated 2013)
# What was measured:
# [1] = molecular target: T1, Aurora B (Homo sapiens, UniProt Q96GD4); assay: Aurora B cell mechanistic assay (HT-29), phospho-Histone H3 (Ser10) ELISA; assay type: cell-based; conditions: HT-29 cell line; inhibition of phospho-Histone H3 (Ser10); at least duplicate experiments (italicized if single experiment); read-out: Aurora B mech IC50
# T1 construct: HT-29 cells grown in complete growth media
# T1 sequence (Q96GD4 whole entry): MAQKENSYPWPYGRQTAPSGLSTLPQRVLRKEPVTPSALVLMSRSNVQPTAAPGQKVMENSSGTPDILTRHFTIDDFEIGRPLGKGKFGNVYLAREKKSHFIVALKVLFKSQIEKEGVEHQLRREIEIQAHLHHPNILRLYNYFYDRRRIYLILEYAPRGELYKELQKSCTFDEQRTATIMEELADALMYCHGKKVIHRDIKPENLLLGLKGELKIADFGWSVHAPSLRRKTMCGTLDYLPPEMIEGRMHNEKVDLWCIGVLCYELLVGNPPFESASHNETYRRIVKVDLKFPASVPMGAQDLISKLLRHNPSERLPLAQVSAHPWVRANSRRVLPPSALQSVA
# Description: The cellular activity of the compounds of the present invention against Aurora B may be determined by the following procedure. HT-29 cells grown in complete growth media (McCoy's 5A, 10% FCS, 1% L-glutamine) were plated into wells of a 96 well tissue culture plate (Falcon 3072) at a cell density of 4×10^4 cells/0.09 ml media/well. Cells were subsequently incubated overnight in a 5% CO2 humidified 37° C. incubator. The following day 10 μl of a 10× stock of test compound serially diluted in media was added to the cells and incubated for 1 h at 37° C. at which time Calyculin A (Cell Signaling #9902) was added at a concentration of 100 nM and cells incubated for an additional 30 minutes in a 5% CO2 humidified 37° C. incubator. Media was then aspirated and cells lysed using a Triton based lysis buffer. Lysates were transferred to a pre-coated anti-Histone H3 antibody coated plate supplied by Cell Signaling in their PathScan phospho-Histone H3 (Ser10) ELISA kit (#7155). After an overnight incubation with lysate the ELISA was continued following the manufacturer's instructions. Signal was measured on a Wallac Victor plate reader at 450 nm. DMSO control treated cells served as 100% signal and an Aurora B kinase inhibitor served as 100% inhibition. The percent inhibition of phospho-Histone H3 (Ser10) was expressed as % control. IC50 values were calculated from the percent control data using a standard four-parameter model.
# The IC50 values of exemplary compounds of the present invention determined in a Aurora B cell mechanistic assay using the HT-29 cell line according to the procedures described herein in at least duplicate experiments are abbreviated as follows and are shown in Table 4: A, IC50≦0.05 μM; B, 0.05 μM<IC50≦0.2 μM; C, 0.2 μM<IC50≦1 μM; D, IC50>1 μM; ND, not determined. If only data from single experiments are available, the abbreviations are italicized. The Example # of Table 4 corresponds to the compound example number as illustrated in the Examples section.
# [2] = tested on: Karpas-299 cells; assay: Karpas-299 cell proliferation assay (CellTiter-Glo); assay type: cell-based; conditions: Homo sapiens, 72 h; Karpas-299 cell line (NPM-ALK); 3 days incubation; at least duplicate experiments; read-out: Prolif. IC50
IC50 [1] [nM],IC50 [2] [nM],SMILES
200 to 1000,50 to 200,"COc1ccc(F)c(Cl)c1[C@@H](C)c1c[nH]c2ncc(-c3c[nH]nc3C)cc12 [Example 1, 3-[(1S)-1-(2-Chloro-3-fluoro-6-methoxyphenyl)ethyl]-5-(3-methyl-1H-pyrazol-4-yl)-1H-pyrrolo[2,3-b]pyridine]"
50 to 200,50 to 200,"COc1ccc(F)c(Cl)c1[C@@H](C)c1c[nH]c2ncc(-c3cn(C)nc3C)cc12 [Example 2, 3-[(1S)-1-(2-Chloro-3-fluoro-6-methoxyphenyl)ethyl]-5-(1,3-dimethyl-1H-pyrazol-4-yl)-1H-pyrrolo[2,3-b]pyridine]"
> 1000,50 to 200,"COc1ccc(F)c(Cl)c1[C@@H](C)c1c[nH]c2ncc(-c3cnn(C)c3C)cc12 [Example 3, 3-[(1S)-1-(2-Chloro-3-fluoro-6-methoxyphenyl)ethyl]-5-(1,5-dimethyl-1H-pyrazol-4-yl)-1H-pyrrolo[2,3-b]pyridine]"
> 1000,50 to 200,"COc1ccc(F)c(Cl)c1[C@@H](C)c1c[nH]c2ncc(-c3c(C)nn(C)c3C)cc12 [Example 4, 3-[(1S)-1-(2-Chloro-3-fluoro-6-methoxyphenyl)ethyl]-5-(1,3,5-trimethyl-1H-pyrazol-4-yl)-1H-pyrrolo[2,3-b]pyridine]"
> 1000,≤ 50,"COc1ccc(F)c(Cl)c1[C@@H](C)c1c[nH]c2ncc(-c3c(C)nn(CC(C)(C)O)c3C)cc12 [Example 5, 1-(4-{3-[(1S)-1-(2-Chloro-3-fluoro-6-methoxyphenyl)ethyl]-1H-pyrrolo[2,3-b]pyridin-5-yl}-3,5-dimethyl-1H-pyrazol-1-yl)-2-methylpropan-2-ol]"
> 1000,≤ 50,"COc1ccc(F)c(Cl)c1[C@@H](C)c1c[nH]c2ncc(-c3c(C)nn([C@H]4CC[C@H](O)CC4)c3C)cc12 [Example 6, trans-4-(4-{3-[(1S)-1-(2-Chloro-3-fluoro-6-methoxyphenyl)ethyl]-1H-pyrrolo[2,3-b]pyridin-5-yl}-3,5-dimethyl-1H-pyrazol-1-yl)cyclohexanol]"
200 to 1000,50 to 200,"COc1ccc(F)c(Cl)c1[C@@H](C)c1c[nH]c2ncc(-c3cn(CC(C)(C)O)nc3C)cc12 [Example 7, 1-(4-{3-[(1S)-1-(2-Chloro-3-fluoro-6-methoxyphenyl)ethyl]-1H-pyrrolo[2,3-b]pyridin-5-yl}-3-methyl-1H-pyrazol-1-yl)-2-methylpropan-2-ol]"
200 to 1000,50 to 200,"COc1ccc(F)c(Cl)c1[C@@H](C)c1c[nH]c2ncc(-c3cnn(CC(C)(C)O)c3C)cc12 [Example 8, 1-(4-{3-[(1S)-1-(2-Chloro-3-fluoro-6-methoxyphenyl)ethyl]-1H-pyrrolo[2,3-b]pyridin-5-yl}-5-methyl-1H-pyrazol-1-yl)-2-methylpropan-2-ol]"
200 to 1000,≤ 50,"COc1ccc(F)c(Cl)c1[C@@H](C)c1c[nH]c2ncc(-c3cnn(C[C@H](O)CO)c3C)cc12 [Example 10, (2S)-3-(4-{3-[(1S)-1-(2-Chloro-3-fluoro-6-methoxyphenyl)ethyl]-1H-pyrrolo[2,3-b]pyridin-5-yl}-5-methyl-1H-pyrazol-1-yl)propane-1,2-diol]"
> 1000,200 to 1000,"CCc1c(-c2cnc3[nH]cc([C@H](C)c4c(OC)ccc(F)c4Cl)c3c2)cnn1CC(C)(C)O [Example 11, 1-(4-{3-[(1S)-1-(2-Chloro-3-fluoro-6-methoxyphenyl)ethyl]-1H-pyrrolo[2,3-b]pyridin-5-yl}-5-ethyl-1H-pyrazol-1-yl)-2-methylpropan-2-ol]"
> 1000,50 to 200,"CCc1nn(CC(C)(C)O)cc1-c1cnc2[nH]cc([C@H](C)c3c(OC)ccc(F)c3Cl)c2c1 [Example 12, 1-(4-{3-[(1S)-1-(2-Chloro-3-fluoro-6-methoxyphenyl)ethyl]-1H-pyrrolo[2,3-b]pyridin-5-yl}-3-ethyl-1H-pyrazol-1-yl)-2-methylpropan-2-ol]"
–,≤ 50,"Cc1c(-c2cnc3[nH]cc([C@H](C)c4c(OC(F)F)ccc(F)c4Cl)c3c2)cnn1C1CCNCC1 [Example 96, 3-{(1S)-1-[2-Chloro-6-(difluoromethoxy)-3-fluorophenyl]ethyl}-5-[5-methyl-1-(piperidin-4-yl)-1H-pyrazol-4-yl]-1H-pyrrolo[2,3-b]pyridine]"
–,≤ 50,"CC(=O)N1CCC(n2ncc(-c3cnc4[nH]cc([C@H](C)c5c(OC(F)F)ccc(F)c5Cl)c4c3)c2C)CC1 [Example 97, 1-{4-[4-(3-{(1S)-1-[2-Chloro-6-(difluoromethoxy)-3-fluorophenyl]ethyl}-1H-pyrrolo[2,3-b]pyridin-5-yl)-5-methyl-1H-pyrazol-1-yl]piperidin-1-yl}ethanone]"
–,50 to 200,"COc1ccc(F)c(Cl)c1[C@@H](C)c1c[nH]c2ncc(-c3cn([C@H]4CC[C@H](O)CC4)nc3OC)cc12 [Example 99, trans-4-(4-{3-[(1S)-1-(2-chloro-3-fluoro-6-methoxyphenyl)ethyl]-1H-pyrrolo[2,3-b]pyridin-5-yl}-3-methoxy-1H-pyrazol-1-yl)cyclohexanol]"
–,50 to 200,"COc1nn([C@H]2CC[C@H](O)CC2)cc1-c1cnc2[nH]cc([C@H](C)c3c(OC(F)F)ccc(F)c3Cl)c2c1 [Example 100, trans-4-[4-(3-{(1S)-1-[2-chloro-6-(difluoromethoxy)-3-fluorophenyl]ethyl}-1H-pyrrolo[2,3-b]pyridin-5-yl)-3-methoxy-1H-pyrazol-1-yl]cyclohexanol]"
–,≤ 50,"COc1ccc(F)c(Cl)c1[C@@H](CF)c1c[nH]c2ncc(-c3cnn([C@H]4CC[C@H](O)CC4)c3C)cc12 [Example 121, trans-4-(4-{3-[(1S)-1-(2-Chloro-3-fluoro-6-methoxyphenyl)-2-fluoroethyl]-1H-pyrrolo[2,3-b]pyridin-5-yl}-5-methyl-1H-pyrazol-1-yl)cyclohexanol]"
–,50 to 200,"Cc1c(-c2cnc3[nH]cc([C@@H](CF)c4c(OC(F)F)ccc(F)c4Cl)c3c2)cnn1[C@H]1CC[C@H](O)CC1 [Example 123, trans-4-[4-(3-{(1R)-1-[2-chloro-6-(difluoromethoxy)-3-fluorophenyl]-2-fluoroethyl}-1H-pyrrolo[2,3-b]pyridin-5-yl)-5-methyl-1H-pyrazol-1-yl]cyclohexanol]"
–,≤ 50,"Cc1c(-c2cnc3[nH]cc([C@H](CF)c4c(OC(F)F)ccc(F)c4Cl)c3c2)cnn1[C@H]1CC[C@H](O)CC1 [Example 124, trans-4-[4-(3-{(1S)-1-[2-chloro-6-(difluoromethoxy)-3-fluorophenyl]-2-fluoroethyl}-1H-pyrrolo[2,3-b]pyridin-5-yl)-5-methyl-1H-pyrazol-1-yl]cyclohexanol]"
–,≤ 50,"C[C@H](c1c(OC(F)F)ccc(F)c1Cl)c1c[nH]c2ncc(-c3cnc(N4CCC(O)CC4)n3C)cc12 [Example 125, 1-[5-(3-{(1S)-1-[2-Chloro-6-(difluoromethoxy)-3-fluorophenyl]ethyl}-1H-pyrrolo[2,3-b]pyridin-5-yl)-1-methyl-1H-imidazol-2-yl]piperidin-4-ol]"
–,≤ 50,"C[C@H](c1c(OC(F)F)ccc(F)c1Cl)c1c[nH]c2ncc(-c3cnc([C@H]4CC[C@H](O)CC4)n3C)cc12 [Example 126, trans-4-[5-(3-{(1S)-1-[2-Chloro-6-(difluoromethoxy)-3-fluorophenyl]ethyl}-1H-pyrrolo[2,3-b]pyridin-5-yl)-1-methyl-1H-imidazol-2-yl]cyclohexanol]"
